# Assay results from ChEMBL document CHEMBL4219237, “Design, synthesis, evaluation, and molecular docking of ursolic acid derivatives containing a nitrogen heterocycle as anti-inflammatory agents” (Bioorg Med Chem Lett, 2018).
# What was measured:
# [1] = test system: HCT-116; assay: Cytotoxicity against human HCT116 cells assessed as growth inhibition after 24 hrs by MTT assay; format: cell-based; details: HCT-116, 24 h
# [2] = test system: Mus musculus; assay: Antiinflammatory activity in mouse assessed as inhibition of para-xylene-induced ear edema at 100 mg/kg, ip administered 30 mins prior to para-xylene challenge measured after 30 mins relative to control; format: functional
# [3] = test system: Mus musculus; assay: Antiinflammatory activity in mouse assessed as inhibition of para-xylene-induced ear edema at 100 mg/kg, po measured at 2 hrs relative to control; format: functional
# [4] = test system: Mus musculus; assay: Antiinflammatory activity in mouse assessed as inhibition of para-xylene-induced ear edema at 25 mg/kg, po measured at 2 hrs relative to control; format: functional
# [5] = test system: Mus musculus; assay: Antiinflammatory activity in mouse assessed as inhibition of para-xylene-induced ear edema at 50 mg/kg, po measured at 2 hrs relative to control; format: functional
# [6] = test system: L02; assay: Cytotoxicity against human L02 cells assessed as growth inhibition after 24 hrs by MTT assay; format: cell-based; details: L02, 24 h
# [7] = test system: Mus musculus; assay: Antiinflammatory activity in mouse assessed as inhibition of para-xylene-induced ear edema at 100 mg/kg, po measured at 4 hrs relative to control; format: functional
# [8] = test system: Mus musculus; assay: Potency index, ratio of test compound to ibuprofen activity in mouse assessed as inhibition of para-xylene-induced ear edema at 100 mg/kg, ip; format: functional
# [9] = test system: Mus musculus; assay: Antiinflammatory activity in mouse assessed as inhibition of para-xylene-induced ear edema at 100 mg/kg, po measured at 3 hrs relative to control; format: functional
# [10] = test system: Mus musculus; assay: Antiinflammatory activity in mouse assessed as inhibition of para-xylene-induced ear edema at 125 mg/kg, po measured at 2 hrs relative to control; format: functional
# [11] = test system: Mus musculus; assay: Antiinflammatory activity in mouse assessed as inhibition of para-xylene-induced ear edema at 100 mg/kg, po measured at 1 hr relative to control; format: functional
# [12] = test system: AGS; assay: Cytotoxicity against human AGS cells assessed as growth inhibition after 24 hrs by MTT assay; format: cell-based
# [13] = test system: Mus musculus; assay: Antiinflammatory activity in mouse assessed as inhibition of para-xylene-induced ear edema at 100 mg/kg, po measured at 5 hrs relative to control; format: functional
Structure (SMILES),IC50 [1],inhibition in vivo at 100 mg/kg [2],further results
C[C@H]1[C@H](C)CC[C@]2(C(=O)OCc3nnc(-c4ccc(Cl)cc4)o3)CC[C@]3(C)C(=CC[C@@H]4[C@@]5(C)CC[C@H](O)C(C)(C)[C@@H]5CC[C@]43C)[C@H]12,> 100 µM,–,–
Cc1ccccc1-c1nnc(COC(=O)[C@]23CC[C@@H](C)[C@H](C)[C@H]2C2=CC[C@@H]4[C@@]5(C)CC[C@H](O)C(C)(C)[C@@H]5CC[C@@]4(C)[C@]2(C)CC3)o1,> 100 µM,57.2%,–
C[C@H]1[C@H](C)CC[C@]2(C(=O)OCCCn3ncn(-c4ccccc4)c3=O)CC[C@]3(C)C(=CC[C@@H]4[C@@]5(C)CC[C@H](O)C(C)(C)[C@@H]5CC[C@]43C)[C@H]12,> 100 µM,69.8%,inhibition in vivo at 100 mg/kg [3]: 41.2 to 47.9%; inhibition in vivo at 25 mg/kg [4]: 19.7%; inhibition in vivo at 50 mg/kg [5]: 35.2%; IC50 [6]: > 200 µM; inhibition in vivo at 100 mg/kg [7]: 20.2%; Ratio [8]: 2; inhibition in vivo at 100 mg/kg [9]: 29.7%; inhibition in vivo at 125 mg/kg [10]: 50.1%; inhibition in vivo at 100 mg/kg [11]: 22.6%; IC50 [12]: > 200 µM; inhibition in vivo at 100 mg/kg [13]: 16.4%
C[C@H]1[C@H](C)CC[C@]2(C(=O)OCc3nnc(-c4ccc(Br)cc4)o3)CC[C@]3(C)C(=CC[C@@H]4[C@@]5(C)CC[C@H](O)C(C)(C)[C@@H]5CC[C@]43C)[C@H]12,> 100 µM,68.9%,–
C[C@H]1[C@H](C)CC[C@]2(C(=O)OCc3nnc(-c4ccccc4)o3)CC[C@]3(C)C(=CC[C@@H]4[C@@]5(C)CC[C@H](O)C(C)(C)[C@@H]5CC[C@]43C)[C@H]12,> 100 µM,62.3%,–
C[C@H]1[C@H](C)CC[C@]2(C(=O)OCc3nnc(-c4ccccc4Br)o3)CC[C@]3(C)C(=CC[C@@H]4[C@@]5(C)CC[C@H](O)C(C)(C)[C@@H]5CC[C@]43C)[C@H]12,> 100 µM,55.3%,–
C[C@H]1[C@H](C)CC[C@]2(C(=O)OCCCN3CCN(Cc4nnc(-c5ccc(F)cc5)o4)CC3)CC[C@]3(C)C(=CC[C@@H]4[C@@]5(C)CC[C@H](O)C(C)(C)[C@@H]5CC[C@]43C)[C@H]12,> 100 µM,58.7%,–
C[C@H]1[C@H](C)CC[C@]2(C(=O)OCCN3CCN(Cc4nnc(-c5cccc(Br)c5)o4)CC3)CC[C@]3(C)C(=CC[C@@H]4[C@@]5(C)CC[C@H](O)C(C)(C)[C@@H]5CC[C@]43C)[C@H]12,> 100 µM,61%,–
C[C@H]1[C@H](C)CC[C@]2(C(=O)OCCn3ncn(-c4ccccc4)c3=O)CC[C@]3(C)C(=CC[C@@H]4[C@@]5(C)CC[C@H](O)C(C)(C)[C@@H]5CC[C@]43C)[C@H]12,> 100 µM,64.2%,–
C[C@H]1[C@H](C)CC[C@]2(C(=O)O)CC[C@]3(C)C(=CC[C@@H]4[C@@]5(C)CC[C@H](O)C(C)(C)[C@@H]5CC[C@]43C)[C@H]12 [URSOLIC ACID],–,57.7%,–
C[C@H]1[C@H](C)CC[C@]2(C(=O)OCc3nnc(-c4cccc(Cl)c4)o3)CC[C@]3(C)C(=CC[C@@H]4[C@@]5(C)CC[C@H](O)C(C)(C)[C@@H]5CC[C@]43C)[C@H]12,> 100 µM,65.4%,–
COc1ccc2c(c1)c(CC(=O)O)c(C)n2C(=O)c1ccc(Cl)cc1 [INDOMETHACIN],–,26.8%,inhibition in vivo at 100 mg/kg [3]: 30.9 to 33.3%; inhibition in vivo at 25 mg/kg [4]: 4.85%; inhibition in vivo at 50 mg/kg [5]: 22.8%; inhibition in vivo at 100 mg/kg [7]: 15.6%; inhibition in vivo at 100 mg/kg [9]: 18.6%; inhibition in vivo at 125 mg/kg [10]: 38.7%; inhibition in vivo at 100 mg/kg [11]: 12%; inhibition in vivo at 100 mg/kg [13]: 10.3%
C[C@H]1[C@H](C)CC[C@]2(C(=O)OCCCCn3ncn(-c4ccccc4)c3=O)CC[C@]3(C)C(=CC[C@@H]4[C@@]5(C)CC[C@H](O)C(C)(C)[C@@H]5CC[C@]43C)[C@H]12,> 100 µM,66.1%,Ratio [8]: 2
C[C@H]1[C@H](C)CC[C@]2(C(=O)OCCCN3CCN(Cc4nnc(-c5ccccc5Cl)o4)CC3)CC[C@]3(C)C(=CC[C@@H]4[C@@]5(C)CC[C@H](O)C(C)(C)[C@@H]5CC[C@]43C)[C@H]12,> 100 µM,32%,–
Cc1ccc(-c2nnc(COC(=O)[C@]34CC[C@@H](C)[C@H](C)[C@H]3C3=CC[C@@H]5[C@@]6(C)CC[C@H](O)C(C)(C)[C@@H]6CC[C@@]5(C)[C@]3(C)CC4)o2)cc1,> 100 µM,58.2%,–
C[C@H]1[C@H](C)CC[C@]2(C(=O)OCCCCCn3ncn(-c4ccccc4)c3=O)CC[C@]3(C)C(=CC[C@@H]4[C@@]5(C)CC[C@H](O)C(C)(C)[C@@H]5CC[C@]43C)[C@H]12,> 100 µM,56.7%,Ratio [8]: 2
C[C@H]1[C@H](C)CC[C@]2(C(=O)OCCCN3CCN(Cc4nnc(-c5ccccc5)o4)CC3)CC[C@]3(C)C(=CC[C@@H]4[C@@]5(C)CC[C@H](O)C(C)(C)[C@@H]5CC[C@]43C)[C@H]12,> 100 µM,47.8%,–
C[C@H]1[C@H](C)CC[C@]2(C(=O)OCc3nnc(-c4ccccc4Cl)o3)CC[C@]3(C)C(=CC[C@@H]4[C@@]5(C)CC[C@H](O)C(C)(C)[C@@H]5CC[C@]43C)[C@H]12,> 100 µM,38.8%,–
Cc1cccc(-c2nnc(COC(=O)[C@]34CC[C@@H](C)[C@H](C)[C@H]3C3=CC[C@@H]5[C@@]6(C)CC[C@H](O)C(C)(C)[C@@H]6CC[C@@]5(C)[C@]3(C)CC4)o2)c1,> 100 µM,–,–
CC(C)Cc1ccc(C(C)C(=O)O)cc1 (configuration not stated) [IBUPROFEN],–,25.2%,–
C[C@H]1[C@H](C)CC[C@]2(C(=O)OCCN3CCN(Cc4nnc(-c5ccccc5)o4)CC3)CC[C@]3(C)C(=CC[C@@H]4[C@@]5(C)CC[C@H](O)C(C)(C)[C@@H]5CC[C@]43C)[C@H]12,> 100 µM,59.1%,–
C[C@H]1[C@H](C)CC[C@]2(C(=O)OCc3nnc(-c4cccc(Br)c4)o3)CC[C@]3(C)C(=CC[C@@H]4[C@@]5(C)CC[C@H](O)C(C)(C)[C@@H]5CC[C@]43C)[C@H]12,> 100 µM,53.7%,–
C[C@H]1[C@H](C)CC[C@]2(C(=O)OCCCN3CCN(Cc4nnc(-c5cccc(Br)c5)o4)CC3)CC[C@]3(C)C(=CC[C@@H]4[C@@]5(C)CC[C@H](O)C(C)(C)[C@@H]5CC[C@]43C)[C@H]12,> 100 µM,66.5%,–
